Tests used:
[1] = test system: STAT- and MAPK-related signal paths; assay: Protein expression of STAT- and MAPK-related signal paths in normal liver cell line; type: cell-based
Description: Please refer to FIG. 17A to FIG. 18B, which are views showing epithelial cell line of normal liver treated with MPA+leptin for 24 hours and 48 hours respectively; and views showing STAT3- and MAPK-related signal paths after treating cell line of normal liver with MPA+leptin. As shown in the figures, after epithelial cell line of normal liver (THLE-3) is applied with MPA+leptin for […], MPA+leptin's effect on cell growth (i.e. survival rate) is analyzed through XTT assay. […] Besides, in FIG. 18A and FIG. 18B, protein expressions for STAT- and MAPK-related signal paths are analyzed.

[2] = test system: liver cancer cells (hepatocellular carcinoma cell line); assay: XTT assay, growth of liver cancer cells; type: cell-based
Description: Please refer to FIG. 2, which is a view showing leptin's effect on growth of liver cancer cells. As shown in the figure, for acquiring effect of leptin on liver cancer cells, the preferred embodiment uses leptin having different doses, where the high-dose leptin has 100 nano-grams (ng) and the low-dose leptin has 10 ng. The 10 ng leptin is conformed to the physiological concentration of normal human body for observing effect of leptin on the cells. In the other hand, the 100 ng leptin is used to show whether a higher levels of leptin obtains a higher effect on the cells.
Please refer to FIG. 3, which is a view showing MPA's effect on growth of liver cancer cells. As shown in the figure, the preferred embodiment applies MPA having different doses to liver cancer cells.
Please refer to FIG. 4, which is a view showing effect of MPA+leptin on growth of liver cancer cells. As shown in the figure, the preferred embodiment applies MPA combined with leptin to liver cancer cells, where MPA has different doses and leptin has different doses.
Please refer to FIG. 9, which is a view showing reduced effect of MPA+leptin by suppressing leptin receptor expression. As shown in the figure, a 20 nano-moles (nM) of leptin receptor, siRNA, is transferred to cells to be cultured a day and is cultured in a serum-free medium for the next day. Then, the cells are processed with MPA+leptin for 24 hours to be analyzed through XTT assay. […] Thus, it is confirmed that leptin enhances MPA's suppression on the cells through the leptin receptor.
Please refer to FIG. 10A and FIG. 10B, which are views showing apoptosis of cells on increasing expression of leptin receptor and expression of progesterone receptor respectively. As shown in the figures, the preferred embodiment makes ob-Rb plasmid transfected to cells to be cultured a day and is cultured in a serum-free medium for the next day. Then, the cells are processed with MPA+leptin for 24 hours to be analyzed through XTT assay. […] Besides, the long-form Ob-R enhances expression of the progesterone receptor. Again, the preferred embodiment makes PgR plasmid transfected to cells to be cultured a day and is cultured in a serum-free medium for the next day. Then, the cells are processed with MPA+leptin for 24 hours to be analyzed through XTT assay.
Please refer to FIG. 15A to FIG. 16B, which are views showing cells containing very much leptin within; suppressed growth of the cells by using MPA; and STAT3- and MAPK-signal paths of the cells after MPA is applied. As shown in the figures, while leptin is added from outside in state 13 to suppress liver cancer cells with MPA+leptin, the preferred embodiment here transfers expression plasmid of leptin (pcLeptin) to liver cancer cells to be cultured for a day; and a serum-free medium is used for the next day. Then, after the cells are processed with 10^−4M MPA for 24 hours, cell growth is analyzed through XTT assay. In FIG. 15A, leptin gene is transferred to cells for a short time for obtaining very much leptin within the cells by themselves. After applying MPA to the cells for 24 hours, it is confirmed that MPA's suppression on liver cancer cells is enhanced by a lot of leptin self-generated within the cells. Moreover, after obtaining a lot of leptin, medium is collected for immunoprecipitation and further western blotting. […] Then, after the cells are processed with 10^−4 M MPA for 24 hours, JAK/STAT-related proteins are analyzed through western blotting.

SMILES: CC(=O)O[C@]1(C(C)=O)CC[C@H]2[C@@H]3C[C@H](C)C4=CC(=O)CC[C@]4(C)[C@H]3CC[C@@]21C [MPA, medroxyprogesterone acetate]
- effect on STAT- and MAPK-related signal proteins [1]: no obvious effect
- MPA's suppression on liver cancer cells ([2]; cells transfected with pcLeptin, 10^-4 M MPA, 24 hours): enhanced
- suppressive effect on liver cancer cells ([2]; high-dose MPA 10^-4 M, 24 hours): obvious suppressive effect
- suppressive effect on liver cancer cells ([2]; high-dose MPA 10^-4 M, 48 hours): the effect is enhanced
- suppressive effect on liver cancer cells ([2]; low-dose MPA 10^-6 M, 24 hours or 48 hours): does not have obvious suppressive effect

Source: patent publication US20110098219A1, “System for Curing Hepatic Cancer with Leptin” (KAOHSIUNG MEDICAL UNIVERSITY, priority 2009, published 2011)
